Results reported in patent publication US11058678B2 (Enanta Pharmaceuticals, Inc., priority 2018, dated 2021).

Test system: HBV (2.2.15 cells)
Test: Antiviral activity in 2.2.15 cells: reduction of viral product accumulation (qPCR of lysates, HBsAg or HBeAg ELISA)
Format: cell-based, hepatitis B virus (HBV)
Details: Hepatitis B virus, 120 h, day 5 post treatment, 50% reduction of viral product accumulation in lysates or supernatants vs no drug controls, readout (qPCR, HBsAg, HBeAg) not specified
Procedure: 2.2.15 cells are passaged upon attaining confluency in DMEM/F12 media in the presence of 10% FBS, Penn/Strep, and 250 ug/mL G418. Novel compounds are 5 fold serially diluted in DMSO and added to 96 well plates containing 35,000 cells/well at a 1:200 dilution so that the final concentration of DMSO is 0.5%. On day 5, post treatment cell lysates and supernatants are harvested for analysis.
Cells are lysed using Agilent Sidestep Lysis buffer, diluted 1:100 and quantified via quantitative real time PCR. Commercially available ELISA kits are used to quantitate the viral proteins HBsAg (Alpco) or HBeAg (US Biological) by following the manufacturer's recommended protocol after diluting samples to match the linear range of their respective assays. Irrespective of readout, compound concentrations that reduce viral product accumulation in the cell lysates or supernatants by 50% relative to no drug controls (EC50) are reported; EC50 ranges are as follows: A<0.1 μM; B 0.1-1 μM; C>1 μM.

Compound `CC(C)(C)[C@@H]1Cc2c(cc(-c3cn[nH]c3)c3c2CCO3)-c2cc(=O)c(C(=O)O)cn21` [Example 87, (S)-5-(tert-butyl)-9-oxo-12-(1H-pyrazol-4-yl)-2,3,4,9-tetrahydro-5H-furo[3,2-f]pyrido[2,1-a]isoquinoline-8-carboxylic Acid] has an EC50 of less than 0.1 µM.

With `COCCCOc1cc2c(cc1-c1c(C)nn(C)c1C)-c1cc(=O)c(C(=O)O)cn1[C@H](C(C)(C)C)C2` [Example 33, (S)-6-(tert-butyl)-9-(3-methoxypropoxy)-2-oxo-10-(1,3,5-trimethyl-1H-pyrazol-4-yl)-6,7-dihydro-2H-pyrido[2,1-a]isoquinoline-3-carboxylic Acid] the EC50 was less than 0.1 µM.

`COCCCOc1cc2c(cc1-c1cccnc1)-c1cc(=O)c(C(=O)O)cn1[C@H]1[C@@H]2COC1(C)C` [Example 128, (3aS,12bR)-11-(3-methoxypropoxy)-3,3-dimethyl-7-oxo-10-(pyridin-3-yl)-3,3a,7,12b-tetrahydro-1H-furo[3,4-c]pyrido[2,1-a]isoquinoline-6-carboxylic Acid] gave an EC50 of less than 0.1 µM.

Compound `COCCCOc1cc2c(cc1-c1cnco1)-c1cc(=O)c(C(=O)O)cn1[C@H]1[C@@H]2COC1(C)C` [Example 121, (3aS,12bR)-11-(3-methoxypropoxy)-3,3-dimethyl-10-(oxazol-5-yl)-7-oxo-3,3a,7,12b-tetrahydro-1H-furo[3,4-c]pyrido[2,1-a]isoquinoline-6-carboxylic Acid] has an EC50 of less than 0.1 µM.

For `Cn1ccc(-c2cc3c(c4c2OCC4)C[C@@H](C(C)(C)C)n2cc(C(=O)O)c(=O)cc2-3)n1` [Example 70, (S)-5-(tert-butyl)-12-(1-methyl-1H-pyrazol-3-yl)-9-oxo-2,3,4,9-tetrahydro-5H-furo[3,2-f]pyrido[2,1-a]isoquinoline-8-carboxylic Acid], the EC50 was less than 0.1 µM.

`CC(C)(C)[C@@H]1Cc2c(cc(-c3ccncc3)c3c2CCO3)-c2cc(=O)c(C(=O)O)cn21` [Example 74, (S)-5-(tert-butyl)-9-oxo-12-(pyridin-4-yl)-2,3,4,9-tetrahydro-5H-furo[3,2-f]pyrido[2,1-a]isoquinoline-8-carboxylic Acid] was tested, and the EC50 was less than 0.1 µM.

In the case of `CC1(C)Cc2c3c(cc(-c4cn[nH]c4)c2O1)-c1cc(=O)c(C(=O)O)cn1[C@H](C(C)(C)C)C3` [Example 147, (S)-5-(tert-butyl)-2,2-dimethyl-9-oxo-12-(1H-pyrazol-4-yl)-2,3,4,9-tetrahydro-5H-furo[3,2-f]pyrido[2,1-a]isoquinoline-8-carboxylic Acid], the EC50 is reported as greater than 1 µM.

`CC(C)(C)[C@@H]1Cc2c(cc(-c3ccccc3Cl)c3c2CCO3)-c2cc(=O)c(C(=O)O)cn21` [Example 76, (S)-5-(tert-butyl)-12-(2-chlorophenyl)-9-oxo-2,3,4,9-tetrahydro-5H-furo[3,2-f]pyrido[2,1-a]isoquinoline-8-carboxylic Acid] showed an EC50 of less than 0.1 µM.

For `CC(C)[C@@H]1Cc2c(cc(-c3cn[nH]c3)c3c2CCO3)-c2cc(=O)c(C(=O)O)cn21` [Example 102, (S)-5-isopropyl-9-oxo-12-(1H-pyrazol-4-yl)-2,3,4,9-tetrahydro-5H-furo[3,2-f]pyrido[2,1-a]isoquinoline-8-carboxylic Acid], the EC50 was less than 0.1 µM.

Compound `CC1(C)Cc2c3c(cc(-c4cnsc4)c2O1)-c1cc(=O)c(C(=O)O)cn1[C@H](C(C)(C)C)C3` [Example 145, (S)-5-(tert-butyl)-12-(isothiazol-4-yl)-2,2-dimethyl-9-oxo-2,3,4,9-tetrahydro-5H-furo[3,2-f]pyrido[2,1-a]isoquinoline-8-carboxylic Acid] has an EC50 greater than 1 µM.

`CC(C)(C)[C@@H]1Cc2c(cc(-c3ccc(Cl)cc3)c3c2CCO3)-c2cc(=O)c(C(=O)O)cn21` [Example 84, (S)-5-(tert-butyl)-12-(4-chlorophenyl)-9-oxo-2,3,4,9-tetrahydro-5H-furo[3,2-f]pyrido[2,1-a]isoquinoline-8-carboxylic Acid] gave an EC50 greater than 1 µM.

`COCCCOc1cc2c(cc1-c1cc(OC)nnc1OC)-c1cc(=O)c(C(=O)O)cn1[C@H](C(C)(C)C)C2` [Example 45, (S)-6-(tert-butyl)-10-(3,6-dimethoxypyridazin-4-yl)-9-(3-methoxypropoxy)-2-oxo-6,7-dihydro-2H-pyrido[2,1-a]isoquinoline-3-carboxylic Acid] showed an EC50 of less than 0.1 µM.

Compound `COc1ccc(-c2cc3c(c4c2OCC4)C[C@@H](C(C)C)n2cc(C(=O)O)c(=O)cc2-3)cc1` [Example 115, (S)-5-isopropyl-12-(4-methoxyphenyl)-9-oxo-2,3,4,9-tetrahydro-5H-furo[3,2-f]pyrido[2,1-a]isoquinoline-8-carboxylic Acid] has an EC50 greater than 1 µM.

In the case of `CC(C)(C)[C@@H]1Cc2c(cc(N3CC4(COC4)C3)c3c2CCO3)-c2cc(=O)c(C(=O)O)cn21` [Example 119, (S)-5-(tert-butyl)-9-oxo-12-(2-oxa-6-azaspiro[3.3]heptan-6-yl)-2,3,4,9-tetrahydro-5H-furo[3,2-f]pyrido[2,1-a]isoquinoline-8-carboxylic Acid], the EC50 is reported as greater than 1 µM.

`COCCCOc1cc2c(cc1-c1cnsc1)-c1cc(=O)c(C(=O)O)cn1[C@H]1[C@@H]2COC1(C)C` [Example 127, (3aS,12bR)-10-(isothiazol-4-yl)-11-(3-methoxypropoxy)-3,3-dimethyl-7-oxo-3,3a,7,12b-tetrahydro-1H-furo[3,4-c]pyrido[2,1-a]isoquinoline-6-carboxylic Acid] showed an EC50 of less than 0.1 µM.

Compound `CC(C)(C)[C@@H]1Cc2c(cc(C3CCOC3)c3c2CCO3)-c2cc(=O)c(C(=O)O)cn21` (stereo partly drawn) [Example 130, (5S)-5-(tert-butyl)-9-oxo-12-(tetrahydrofuran-3-yl)-2,3,4,9-tetrahydro-5H-furo[3,2-f]pyrido[2,1-a]isoquinoline-8-carboxylic Acid] has an EC50 of less than 0.1 µM.

For `CC(C)[C@@H]1Cc2c(cc(-c3cccs3)c3c2CCO3)-c2cc(=O)c(C(=O)O)cn21` [Example 99, (S)-5-isopropyl-9-oxo-12-(thiophen-2-yl)-2,3,4,9-tetrahydro-5H-furo[3,2-f]pyrido[2,1-a]isoquinoline-8-carboxylic Acid], the EC50 was less than 0.1 µM.

`CC(C)(C)[C@@H]1Cc2c(cc(-c3ccn[nH]3)c3c2CCO3)-c2cc(=O)c(C(=O)O)cn21` [Example 82, (S)-5-(tert-butyl)-9-oxo-12-(1H-pyrazol-5-yl)-2,3,4,9-tetrahydro-5H-furo[3,2-f]pyrido[2,1-a]isoquinoline-8-carboxylic Acid] gave an EC50 of less than 0.1 µM.

For `COCCCOc1cc2c(cc1-c1cccc(Cl)c1)-c1cc(=O)c(C(=O)O)cn1[C@H]1[C@@H]2COC1(C)C` [Example 138, (3aS,12bR)-10-(3-chlorophenyl)-11-(3-methoxypropoxy)-3,3-dimethyl-7-oxo-3,3a,7,12b-tetrahydro-1H-furo[3,4-c]pyrido[2,1-a]isoquinoline-6-carboxylic Acid], the EC50 was less than 0.1 µM.

In the case of `COCCCOc1cc2c(cc1-c1ccccc1OC(F)(F)F)-c1cc(=O)c(C(=O)O)cn1[C@H](C(C)(C)C)C2` [Example 58, (S)-6-(tert-butyl)-9-(3-methoxypropoxy)-2-oxo-10-(2-(trifluoromethoxy)phenyl)-6,7-dihydro-2H-pyrido[2,1-a]isoquinoline-3-carboxylic Acid], the EC50 is reported as greater than 1 µM.

`COCCCOc1cc2c(cc1-c1ccnn1C)-c1cc(=O)c(C(=O)O)cn1[C@H]1[C@@H]2COC1(C)C` [Example 122, (3aS,12bR)-11-(3-methoxypropoxy)-3,3-dimethyl-10-(1-methyl-1H-pyrazol-5-yl)-7-oxo-3,3a,7,12b-tetrahydro-1H-furo[3,4-c]pyrido[2,1-a]isoquinoline-6-carboxylic Acid] gave an EC50 greater than 1 µM.
